Test systems include M19-MEL; DMS-273; XF498; HOP-18; SNB-78; LXFL 529; RXF 631; DU-145; MDA-MB-231.
Holding throughout (assay): NCI anticancer screen, dose series, 48 h

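Grown in 96-well plates, cells were treated for 48 hours with each compound at five concentrations. Insufficient inhibition: endpoint recorded as highest concentration tested. GI50: concentration for 50% inhibition of growth.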 Active and inactive are the calls of the source. Rule as the data show it: active = GI50 up to about 1.1 µM and inactive = higher.

As to `CC(C)c1oc(=O)cc2c1C(O)C1OC(=O)C3(C)C(O)C4OC4C2(C)C13` (configuration not stated) [NAGILACTONE], the GI50 with M19-MEL was 1.26 µM (inactive); in the test with DMS-273 it was 0.966 µM (active); in the test with XF498 it was 0.703 µM (active); in the test with HOP-18, 3.48 µM (inactive); in the test on SNB-78 it was 6.25 µM (inactive).

Consider `O=C(CC1Sc2ccccc2NC1=O)Nc1ccc(Cl)cc1` (configuration not stated), for which the GI50 in the test with M19-MEL was > 100 µM (inactive); in the test with DMS-273, 83.4 µM (inactive); with LXFL 529 it was > 100 µM (inactive); in the test on XF498 it was > 100 µM (inactive); with RXF 631, 83.6 µM (inactive); with HOP-18, 20 µM (inactive). Also, the GI50 with SNB-78 is > 100 µM (inactive).

On to `OCC1OC(n2cnc3c2NC=NC[C@H]3O)C(O)C1O` (some centres not stated), for which the GI50 was > 450 µM (inactive) with M19-MEL; 303 µM (inactive) in the test on DMS-273; > 274 µM (inactive) in the test on XF498; 71.3 µM (inactive) in the test with HOP-18; > 450 µM (inactive) in the test with SNB-78.

For the compound `CS(=O)(=O)OCCCNCCCOS(C)(=O)=O`, the GI50 in the test on M19-MEL is 1580 µM (inactive); in the test with DMS-273, 328 µM (inactive); in the test with DU-145, 627 µM (inactive); in the test on XF498 it was 938 µM (inactive); with MDA-MB-231, 1860 µM (inactive); in the test with HOP-18 it was 1420 µM (inactive). Besides, the GI50 in the test with SNB-78 is 2100 µM (inactive).

`N#CC1C(=O)C(=O)N(c2ccccc2)C1=O` (configuration not stated): the GI50 with M19-MEL, in the test with DMS-273, with LXFL 529, in the test with XF498, in the test on RXF 631 and with HOP-18 was > 100 µM (inactive) in each case. In the test on SNB-78, the GI50 is > 100 µM (inactive).

In the case of `COc1ccc(N(CC(=O)O)S(=O)(=O)c2ccccc2)cc1`, the GI50 with M19-MEL, in the test on DMS-273, with LXFL 529, in the test on XF498, in the test with RXF 631 and with HOP-18 was > 100 µM (inactive) in each case.

As to `CC12CC3CC(C1)CC(N=[N+]=[N-])(C3)C2`, the GI50 in the test with M19-MEL, in the test with DMS-273, with LXFL 529, in the test with XF498, in the test with RXF 631 and in the test on HOP-18 was > 100 µM (inactive) each time. For the same compound, the GI50 in the test with SNB-78 was > 100 µM (inactive).

In the case of `CC1(C)N=C(N)N=C(N)N1c1ccc(CCc2ccccc2)cc1`, the GI50 with M19-MEL is 2.84 µM (inactive); in the test on DMS-273, 0.7 µM (active); in the test with XF498, < 0.01 µM (active); in the test on HOP-18, 45.7 µM (inactive); in the test with SNB-78 it was 13.6 µM (inactive).

As to `CC(C)CCCC(C)[C@H]1CCC(C2C[C@@H](O)[C@@H]3CC(O)[C@@H](O)C[C@]3(CO)C2=O)[C@]1(C)CCO` (some centres not stated), the GI50 in the test with M19-MEL was 21 µM (inactive); in the test on DMS-273 it was 32.3 µM (inactive); in the test on XF498, > 42.9 µM (inactive); with HOP-18, 23.7 µM (inactive); with SNB-78 it was 32.7 µM (inactive).

In the case of `CC1CC(C)(O)C2C3(C)CCCC2(COC3=O)C12CCC1(CCOC1=O)O2` (configuration not stated), the GI50 in the test with M19-MEL was > 250 µM (inactive); in the test on DMS-273, > 250 µM (inactive); in the test with XF498 it was 38.3 µM (inactive); in the test with HOP-18 it was > 250 µM (inactive); in the test on SNB-78 it was > 250 µM (inactive).

`CCOC(=O)C1S/C(=N\c2ccc(Cl)cc2Cl)N=C1C` (configuration not stated): the GI50 in the test with M19-MEL is 86.5 µM (inactive); in the test with DMS-273, 61.1 µM (inactive); with LXFL 529 it was 75.2 µM (inactive); in the test on XF498, 39.5 µM (inactive); with HOP-18, > 100 µM (inactive); in the test on SNB-78, 60.7 µM (inactive).

As for `CC1=C(C(=O)NCc2ccccc2)C(c2ccco2)C(C(=O)NCc2ccccc2)=C(C)N1`, the GI50 in the test on DMS-273 was 66.8 µM (inactive); in the test with LXFL 529, 42.6 µM (inactive); in the test on XF498 it was > 100 µM (inactive); in the test with HOP-18 it was > 100 µM (inactive); in the test with SNB-78 it was > 100 µM (inactive).

Regarding `C/C=C(\C)C(=O)OC1C2C(C)=CC(=O)C(O)C2(C)C2C3(O)OCC24C1OC(=O)C(OC(C)=O)C4C(C)C3O` (configuration not stated), the GI50 in the test with M19-MEL was 0.0375 µM (active); in the test with DMS-273, 0.0375 µM (active); in the test on XF498, 0.0396 µM (active); with HOP-18 it was 0.0811 µM (active); in the test on SNB-78, 0.0483 µM (active).

As to `COc1cc(-c2cc(O)c3cc4c(cc3n2)OCO4)cc(OC)c1OC`, the GI50 in the test with M19-MEL is > 100 µM (inactive); with DMS-273, 46.2 µM (inactive); in the test with LXFL 529 it was > 100 µM (inactive); in the test with XF498 it was 29.8 µM (inactive); with HOP-18 it was 72.8 µM (inactive); in the test on SNB-78, > 100 µM (inactive).

As for `O=C(CCc1ccccc1)CC1OC(=O)C(Cl)=C1Cl` (configuration not stated), the GI50 in the test on M19-MEL was 17.7 µM (inactive); in the test on DMS-273, 22.3 µM (inactive); in the test with LXFL 529, 15.8 µM (inactive); in the test with XF498 it was 25.7 µM (inactive); in the test on HOP-18, 23.3 µM (inactive); in the test with SNB-78, 46.5 µM (inactive).

Regarding `COC(=O)c1sc(=O)n(-c2ccccc2)c1SCc1ccccc1`, the GI50 in the test on M19-MEL, in the test on DMS-273, in the test on LXFL 529, with XF498, in the test with RXF 631 and in the test with HOP-18 was > 100 µM (inactive) throughout.

For `C=CC1(C)CCC2=C(CCC3C(C)(C(=O)OC)CCCC23C)C1=O` (configuration not stated), the GI50 is 18.7 µM (inactive) in the test on M19-MEL, 18.5 µM (inactive) with LXFL 529, 16.2 µM (inactive) in the test with RXF 631 and 18.8 µM (inactive) in the test with SNB-78.

Values taken from ChEMBL document CHEMBL1201862, “PubChem BioAssay data set” (2004).
